# Laboratory results published in paper PMC13198257, “An aerosolized dual-action autotaxin inhibitor-PPARγ agonist for the treatment of pulmonary fibrosis” (Cell Reports Medicine, 2026).
# Tested on: lung gene expression
# Assay: RNA sequencing of lung tissue (BLM/EL244 vs BLM)
# Format: in vivo, mouse
# Experimental: RNA quality was assessed using an Agilent TapeStation 4150 with the High Sensitivity […] ScreenTape (Agilent), according to the manufacturer’s protocols. For library preparation, the QuantSeq 3’mRNA-Seq Library Prep Kit (Lexogen) was used according to manufacturer’s instructions. Briefly, 500 ng of RNA from each sample was used for first-strand synthesis, followed by RNA template removal, and second-strand synthesis initiated by random primers. In-line barcodes were introduced at this step, and this was followed by magnetic bead-based purification. The resulting libraries were amplified for 15 cycles and re-purified, with quantity and quality assessed on a Qubit 4 Fluorometer with the Invitrogen Qubit dsDNA HS Assay and an Agilent Tapestation 4150 with the High Sensitivity D1000 assay kit, respectively. The quantified libraries were pooled equimolarly; 50ng of total library mix was used for Adapter Conversion PCR Amplification using the Universal Library Conversion Kit (App-A), Version: V1.0 (MGI Tech Co., Ltd.), according to the manufacturer’s instructions.
# The quantity and quality of the purified adapter conversion PCR (AC-PCR) product were evaluated on a Qubit 4 Fluorometer with the Invitrogen Qubit dsDNA HS Assay and on an Agilent Tapestation 4150 with the High Sensitivity D1000 assay kit, respectively. This was followed by DNA denaturation, Single-Strand Circularisation, Enzymatic Digestion, Enzymatic Digestion Product Cleanup and Quality Control steps on 1 pmol of AC-PCR product, according to the Universal Library Conversion Kit (App-A) User Manual (Version: A3).
# Finally, 60 fmol of ssCirDNA were used for DNB preparation and sequencing on a DNBSEQ-G400 platform at the BSRC Alexander Fleming Genomics Facility, using a G400 App-A FCS SE100 High-throughput Sequencing Set (MGI Tech Co., Ltd.), according to the manufacturer’s instructions.
# Alignment of the FASTQ files was performed against the mouse genome build mm10 using a custom Bash script.[143] Read counting on the 3′ UTRs and differential expression analysis were conducted using the metaseqR2 bioconductor package.[144] Genes corresponding to the following biotypes were excluded: polymorphic_pseudogene, processed_transcript, pseudogene, IG_V_pseudogene, misc_RNA, IG_C_gene, IG_J_gene, IG_D_gene, IG_LV_gene, TR_V_gene, TR_V_pseudogene, TEC, and processed_pseudogene. Gene counts were normalized with DESEQ[145] through metaseqR2. Genes with more than 10 counts in at least 50% of the samples were kept for further processing. For differential expression analysis, the PANDORA algorithm[146] was used to estimate a meta p-value integrating the results from the DESEQ, DESEQ2,[147] edgeR,[148] limma,[149] NBPSeq,[150] and NOISeq[151] algorithms. All additional parameters were set to default values.
# Pathway enrichment analysis was performed for the Gene Ontology Biological process (BP) and Molecular Function (MF) terms through GeneCodis 4.[152] The volcano plots, scatterplots, Venn diagrams, and dot plots were generated using the ggplot2 Bioconductor package.
structure (smiles),measurement,setting,value
"O=C1NC(=O)C(Cc2ccc(OCCC3CCN(C(=O)OCc4cc(Cl)cc(Cl)c4)CC3)cc2)S1 (stereo not drawn) [EL244, 3,5-dichlorobenzyl 4-(2-(4-((2,4-dioxothiazolidin-5-yl)methyl)phenoxy)ethyl)piperidine-1-carboxylate]",Myh6 log2 nFC BLM/EL244 vs BLM,"DEG Myh6, nFC: normalised fold change",2.62
same,Myh7 log2 nFC BLM/EL244 vs BLM,"DEG Myh7, nFC: normalised fold change",2.22
same,Myl4 log2 nFC BLM/EL244 vs BLM,"DEG Myl4, nFC: normalised fold change",1.94
same,Myl7 log2 nFC BLM/EL244 vs BLM,"DEG Myl7, nFC: normalised fold change",1.90
same,Mylk3 log2 nFC BLM/EL244 vs BLM,"DEG Mylk3, nFC: normalised fold change",2.03
same,Myom2 log2 nFC BLM/EL244 vs BLM,"DEG Myom2, nFC: normalised fold change",1.87
same,log2 nFC BLM/EL244 vs BLM,DEG Ncapd2,-1.29
same,Ndrg2 log2 nFC BLM/EL244 vs BLM,"DEG Ndrg2, nFC: normalised fold change",0.88
same,Nek5 log2 nFC BLM/EL244 vs BLM,"DEG Nek5, nFC: normalised fold change",0.81
same,Ngp log2 nFC BLM/EL244 vs BLM,"DEG Ngp, nFC: normalised fold change",2.72
same,Nhlrc1 log2 nFC BLM/EL244 vs BLM,"DEG Nhlrc1, nFC: normalised fold change",1.34
same,log2 nFC BLM/EL244 vs BLM,DEG Nnat,-1.34
same,Nova2 log2 nFC BLM/EL244 vs BLM,"DEG Nova2, nFC: normalised fold change",0.90
same,Npr3 log2 nFC BLM/EL244 vs BLM,"DEG Npr3, nFC: normalised fold change",1.53
same,Nr1d1 log2 nFC BLM/EL244 vs BLM,"DEG Nr1d1, nFC: normalised fold change",0.84
same,Nr4a3 log2 nFC BLM/EL244 vs BLM,"DEG Nr4a3, nFC: normalised fold change",1.63
same,log2 nFC BLM/EL244 vs BLM,DEG Nrcam,-1.26
same,log2 nFC BLM/EL244 vs BLM,DEG Nrep,-1.26
same,Nrgn log2 nFC BLM/EL244 vs BLM,"DEG Nrgn, nFC: normalised fold change",1.04
same,Nrn1 log2 nFC BLM/EL244 vs BLM,"DEG Nrn1, nFC: normalised fold change",1.84
same,Nrxn2 log2 nFC BLM/EL244 vs BLM,"DEG Nrxn2, nFC: normalised fold change",0.88
same,Ogn log2 nFC BLM/EL244 vs BLM,"DEG Ogn, nFC: normalised fold change",0.86
same,log2 nFC BLM/EL244 vs BLM,DEG Ooep,-1.51
same,Osgin1 log2 nFC BLM/EL244 vs BLM,"DEG Osgin1, nFC: normalised fold change",0.74
same,Pcolce2 log2 nFC BLM/EL244 vs BLM,"DEG Pcolce2, nFC: normalised fold change",0.98
same,Pcp4l1 log2 nFC BLM/EL244 vs BLM,"DEG Pcp4l1, nFC: normalised fold change",0.75
same,log2 nFC BLM/EL244 vs BLM,DEG Pdgfc,-1.47
same,log2 nFC BLM/EL244 vs BLM,DEG Pdlim4,-1.24
same,Phactr1 log2 nFC BLM/EL244 vs BLM,"DEG Phactr1, nFC: normalised fold change",0.74
same,Phf1 log2 nFC BLM/EL244 vs BLM,"DEG Phf1, nFC: normalised fold change",0.75
same,Phf24 log2 nFC BLM/EL244 vs BLM,"DEG Phf24, nFC: normalised fold change",1.57
same,log2 nFC BLM/EL244 vs BLM,DEG Pla1a,-1.42
same,Pla2g1b log2 nFC BLM/EL244 vs BLM,"DEG Pla2g1b, nFC: normalised fold change",0.79
same,log2 nFC BLM/EL244 vs BLM,DEG Plk4,-1.31
same,Pln log2 nFC BLM/EL244 vs BLM,"DEG Pln, nFC: normalised fold change",2.30
same,Pmvk log2 nFC BLM/EL244 vs BLM,"DEG Pmvk, nFC: normalised fold change",1.09
same,log2 nFC BLM/EL244 vs BLM,DEG Pole,-1.58
same,log2 nFC BLM/EL244 vs BLM,DEG Pole2,-1.50
same,Ppbp log2 nFC BLM/EL244 vs BLM,"DEG Ppbp, nFC: normalised fold change",1.09
same,Ppl log2 nFC BLM/EL244 vs BLM,"DEG Ppl, nFC: normalised fold change",0.87
same,Ppp4r4 log2 nFC BLM/EL244 vs BLM,"DEG Ppp4r4, nFC: normalised fold change",1.26
same,Pram1 log2 nFC BLM/EL244 vs BLM,"DEG Pram1, nFC: normalised fold change",1.64
same,Prf1 log2 nFC BLM/EL244 vs BLM,"DEG Prf1, nFC: normalised fold change",1.34
same,Prmt8 log2 nFC BLM/EL244 vs BLM,"DEG Prmt8, nFC: normalised fold change",1.27
same,Prob1 log2 nFC BLM/EL244 vs BLM,"DEG Prob1, nFC: normalised fold change",0.76
same,log2 nFC BLM/EL244 vs BLM,DEG Psrc1,-1.26
same,Ptgfr log2 nFC BLM/EL244 vs BLM,"DEG Ptgfr, nFC: normalised fold change",0.93
same,log2 nFC BLM/EL244 vs BLM,DEG Pth1r,-1.40
same,Pwwp3b log2 nFC BLM/EL244 vs BLM,"DEG Pwwp3b, nFC: normalised fold change",1.22
same,Rab44 log2 nFC BLM/EL244 vs BLM,"DEG Rab44, nFC: normalised fold change",1.61
same,Rapgef5 log2 nFC BLM/EL244 vs BLM,"DEG Rapgef5, nFC: normalised fold change",0.88
same,Rassf10 log2 nFC BLM/EL244 vs BLM,"DEG Rassf10, nFC: normalised fold change",1.19
same,Rbfox3 log2 nFC BLM/EL244 vs BLM,"DEG Rbfox3, nFC: normalised fold change",1.26
same,Rbm24 log2 nFC BLM/EL244 vs BLM,"DEG Rbm24, nFC: normalised fold change",1.20
same,Rdh12 log2 nFC BLM/EL244 vs BLM,"DEG Rdh12, nFC: normalised fold change",1.74
same,Retnlg log2 nFC BLM/EL244 vs BLM,"DEG Retnlg, nFC: normalised fold change",1.46
same,Rgs9 log2 nFC BLM/EL244 vs BLM,"DEG Rgs9, nFC: normalised fold change",1.01
